Here are results for 36 compounds from patent US11261186B2, “Biaryl derivative as GPR120 agonist” (LG CHEM, LTD., priority 2014, dated 2022).

This assay concerns the target T1, hGPR120 (Homo sapiens, UniProt Q5NUL3).
T1 construct: expressed in transfected cells; host or cells: CHO-K1
T1 sequence (Q5NUL3 1-361): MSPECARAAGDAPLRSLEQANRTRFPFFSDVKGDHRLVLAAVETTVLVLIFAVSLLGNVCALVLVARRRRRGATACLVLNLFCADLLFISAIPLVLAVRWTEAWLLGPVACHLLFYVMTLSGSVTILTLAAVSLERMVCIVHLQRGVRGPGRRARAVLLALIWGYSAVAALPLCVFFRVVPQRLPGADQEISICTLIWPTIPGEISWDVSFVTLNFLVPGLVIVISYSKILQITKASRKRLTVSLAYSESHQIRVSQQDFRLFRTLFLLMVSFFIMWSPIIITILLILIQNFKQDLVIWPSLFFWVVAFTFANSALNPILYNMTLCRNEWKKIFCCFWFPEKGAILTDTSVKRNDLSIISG
Put plainly: Measurement of Activity of GPR120 Agonist (Cell-Based Assay), Calcium 5 dye fluorescence. Conditions: CHO-K1 cells expressing Ga16 and hGPR120. An outline of the steps: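 CHO-K1 cells co-expressing Gα16 and hGPR120, plated 18 h, loaded 1 h at 37°C with Calcium 5 dye. Serially diluted agonists added at 0.5% DMSO final; fluorescence read at Ex 485/Em 525 nm and expressed as relative % of DMSO-only signal.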
For the compound `Cc1cc(OC2CCC2)nc(-c2cc(F)c(OCC3CC3C(=O)O)c(F)c2)c1` (stereo not drawn) [Example 548, 2-[4-(6-cyclobutoxy-4-methyl-pyridin-2-yl)-2,6-difluoro-phenoxymethyl]-cyclopropanecarboxylic acid], the 50% effective concentration (EC50) (commonly the concentration needed to bring the measured effect to its halfway point) is under 0.2 µM. For `O=C(O)C1CC1COc1c(F)cc(-c2cccc(OCC3CC3)n2)cc1F` (stereo not drawn) [Example 549, 2-[4-(6-cyclopropylmethoxy-pyridin-2-yl)-2,6-difluoro-phenoxymethyl]-cyclopropanecarboxylic acid], the concentration for a half-maximal effect (EC50) is under 0.2 µM. For `O=C(O)C1CC1COc1c(F)cc(-c2cncc(OC3CCC3)n2)cc1F` (stereo not drawn) [Example 550, 2-[4-(6-cyclobutoxy-pyrazin-2-yl)-2,6-difluoro-phenoxymethyl]-cyclopropanecarboxylic acid] the value was under 0.2 µM. For `O=C(O)C1CC1COc1c(F)cc(-c2csc(OC3CCC3)n2)cc1F` (stereo not drawn) [Example 551, 2-[4-(2-cyclobutoxy-thiazol-4-yl)-2,6-difluoro-phenoxymethyl]-cyclopropanecarboxylic acid] the value was 0.2 to 2 µM; for `O=C(O)C1CC1COc1c(F)cc(-c2cccc(OCC3CC3)n2)cc1Cl` (stereo not drawn) [Example 552, 2-[2-chloro-4-(6-cyclopropylmethoxy-pyridin-2-yl)-6-fluoro-phenoxymethyl]-cyclopropanecarboxylic acid], 0.2 to 2 µM. For `Cc1cc(OC2CCC2)nc(-c2cc(F)c(OCC3CC3C(=O)O)c(Cl)c2)n1` (stereo not drawn) [Example 553, 2-[2-chloro-4-(4-cyclobutoxy-6-methyl-pyrimidin-2-yl)-6-fluoro-phenoxymethyl]-cyclopropanecarboxylic acid] the value was 0.2 to 2 µM; for `O=C(O)C1CC1COc1c(F)cc(-c2cccc(OC3CCC3)n2)cc1Cl` (stereo not drawn) [Example 554, 2-[2-chloro-4-(6-cyclobutoxy-pyridin-2-yl)-6-fluoro-phenoxymethyl]-cyclopropanecarboxylic acid], under 0.2 µM.

Turning to `O=C(O)CCC1CCc2cc(-c3cccc(OC4CCC4)c3)ccc2O1` (stereo not drawn) [Example 555, 3-[6-(3-cyclobutoxy-phenyl)-chroman-2-yl]-propionic acid], the EC50 was under 0.2 µM.

`CCCOc1cccc(-c2ccc3c(c2)CCC(CCC(=O)O)O3)n1` (stereo not drawn) [Example 556, 3-[6-(6-propoxy-pyridin-2-yl)-chroman-2-yl]-propionic acid]: the concentration giving a half-maximal response (EC50) was under 0.2 µM.

As to `O=C(O)CCCOc1c(F)cc(-c2ccc3cc[nH]c3c2)cc1F` [Example 557, 4-[2,6-difluoro-4-(1H-indol-6-yl)-phenoxy]-butanoic acid], the concentration giving a half-maximal response (EC50) lay in the range of 2 to 20 µM. Regarding `CC(C)n1ccc2ccc(-c3cc(F)c(OCCCC(=O)O)c(F)c3)cc21` [Example 558, 4-[2,6-difluoro-4-(1-isopropyl-1H-indol-6-yl)-phenoxy]-butanoic acid], the EC50 is under 0.2 µM. For `O=C(O)CCCOc1c(F)cc(-c2ccc3ccn(CC4CC4)c3c2)cc1F` [Example 559, 4-[4-(1-cyclopropylmethyl-1H-indol-6-yl)-2,6-difluoro-phenoxy]-butanoic acid], the EC50 was under 0.2 µM.

Consider `O=C(O)CC1CCN(c2c(F)cc(-c3cccc(OCC4CC4)n3)cc2F)C1` (stereo not drawn) [Example 560, {1-[4-(6-cyclopropylmethoxy-pyridin-2-yl)-2,6-difluoro-phenyl]-pyrrolidin-3-yl}-acetic acid], for which the concentration for a half-maximal effect (EC50) was under 0.2 µM. To `O=C(O)CC1CCN(c2c(F)cc(-c3cccc(OC4CCC4)n3)cc2F)C1` (stereo not drawn) [Example 561, {1-[4-(6-cyclobutoxy-pyridin-2-yl)-2,6-difluoro-phenyl]-pyrrolidin-3-yl}-acetic acid] belongs under 0.2 µM; to `CC(C)n1cc(Cl)c2ccc(-c3cc(F)c(OCCCC(=O)O)c(F)c3)cc21` [Example 562, 4-[4-(3-chloro-1-isopropyl-1H-indol-6-yl)-2,6-difluoro-phenoxy]-butanoic acid], 2 to 20 µM. For `CC(C)Oc1cccc(-c2cc(F)c(N3CCC(CC(=O)O)C3)c(F)c2)n1` (stereo not drawn) [Example 563, {1-[2,6-difluoro-4-(6-isopropoxy-pyridin-2-yl)-phenyl]-pyrrolidin-3-yl}-acetic acid] the value was under 0.2 µM. To `O=C(O)CC1CCN(c2c(F)cc(-c3cccc(OCC4CCC4)n3)cc2F)C1` (stereo not drawn) [Example 564, {1-[4-(6-cyclobutylmethoxy-pyridin-2-yl)-2,6-difluoro-phenyl]-pyrrolidin-3-yl}-acetic acid] belongs 0.2 to 2 µM; to `O=C(O)CCCOc1c(F)cc(-c2ccc(COCC3CC3)s2)cc1F` [Example 565, 4-[4-(5-cyclopropylmethoxymethyl-thiophen-2-yl)-2,6-difluoro-phenoxy]-butanoic acid], under 0.2 µM.

Take `O=C(O)CCCOc1c(F)cc(-c2csc(COCC3CC3)c2)cc1F` [Example 566, 4-[4-(5-cyclopropylmethoxymethyl-thiophen-3-yl)-2,6-difluoro-phenoxy]-butanoic acid]: the EC50 was under 0.2 µM.

Turning to `O=C(O)CC1CCN(c2c(F)cc(-c3csc(COCC4CC4)c3)cc2F)CC1` [Example 567, {1-[4-(5-cyclopropylmethoxymethyl-thiophen-3-yl)-2,6-difluoro-phenyl]-piperidin-4-yl}-acetic acid], the concentration for a half-maximal effect (EC50) was in the range of 0.2 to 2 µM. To `Cc1nc(COCC2CC2)c(-c2cc(F)c(OCCCC(=O)O)c(F)c2)s1` [Example 568, 4-[4-(4-cyclopropylmethoxymethyl-2-methyl-thiazol-5-yl)-2,6-difluoro-phenoxy]-butanoic acid] belongs 2 to 20 µM; to `O=C(O)CC1CCN(c2c(F)cc(-c3ccc(COCC4CC4)s3)cc2F)CC1` [Example 569, {1-[4-(5-cyclomethoxymethyl-thiophen-2-yl)-2,6-difluoro-phenyl]-piperidin-4-yl}-acetic acid], 2 to 20 µM.

With `Cc1nc(COCC2CC2)c(-c2cc(F)c(N3CCC(CC(=O)O)CC3)c(F)c2)s1` [Example 570, {1-[4-(4-cyclopropylmethoxymethyl-2-methyl-thiazol-5-yl)-2,6-difluoro-phenyl]-piperidin-4-yl}-acetic acid], the 50% effective concentration (EC50) lay within 0.2 to 2 µM. To `CC(C)COCc1cc(-c2cc(F)c(OCCCC(=O)O)c(F)c2)cs1` [Example 572, 4-[2,6-difluoro-4-(5-isobutoxymethyl-thiophen-3-yl)-phenoxy]-butanoic acid] belongs under 0.2 µM; to `O=C(O)CCCOc1c(F)cc(-c2csc(COC3CCC3)c2)cc1F` [Example 573, 4-[4-(5-cyclobutoxymethyl-thiophen-3-yl)-2,6-difluoro-phenoxy]-butanoic acid], under 0.2 µM.

Consider `O=C(O)CCCOc1c(F)cc(-c2sccc2COCC2CC2)cc1F` [Example 574, 4-[4-(3-cyclopropylmethoxymethyl-thiophen-2-yl)-2,6-difluoro-phenoxy]-butanoic acid], for which the 50% effective concentration (EC50) is under 0.2 µM. To `Cc1cc(OC2CCC2)nc(-c2cc(F)c(N3CCC(CC(=O)O)C3)c(F)c2)n1` (stereo not drawn) [Example 575, {1-[4-(4-cyclobutoxy-6-methyl-pyrimidin-2-yl)-2,6-difluoro-phenyl]-pyrrolidin-3-yl}-acetic acid] belongs 0.2 to 2 µM. As to `Cc1cc(OCC2CC2)nc(-c2cc(F)c(N3CCC(CC(=O)O)C3)c(F)c2)n1` (stereo not drawn) [Example 576, {1-[4-(4-cyclopropylmethoxy-6-methyl-pyrimidin-2-yl)-2,6-difluoro-phenyl]-pyrrolidin-3-yl}-acetic acid], the half-maximal effective concentration (EC50) was under 0.2 µM. Regarding `Cc1cc(OC2CCC2)nc(-c2cc(F)c(N3CCC(CC(=O)O)C3)c(F)c2)c1` (stereo not drawn) [Example 577, {1-[4-(6-cyclobutoxy-4-methyl-pyridin-2-yl)-2,6-difluoro-phenyl]-pyrrolidin-3-yl}-acetic acid], the EC50 lay in the range of 0.2 to 2 µM.

As for `O=C(O)CC1CCN(c2c(F)cc(-c3cncc(OC4CCC4)n3)cc2F)C1` (stereo not drawn) [Example 578, {1-[4-(6-cyclobutoxy-pyrazin-2-yl)-2,6-difluoro-phenyl]-pyrrolidin-3-yll}-acetic acid], the concentration for a half-maximal effect (EC50) was under 0.2 µM.

As to `O=C(O)CC1CCN(c2c(F)cc(-c3nccc(OC4CCC4)n3)cc2F)C1` (stereo not drawn) [Example 579, {1-[4-(4-cyclobutoxy-pyrimidin-2-yl)-2,6-difluoro-phenyl]-pyrrolidin-3-yl}-acetic acid], the EC50 is under 0.2 µM. For `O=C(O)CC1CCN(c2c(F)cc(-c3cncc(OCC4CC4)n3)cc2F)C1` (stereo not drawn) [Example 580, {1-[4-(6-cyclopropylmethoxy-pyrazin-2-yl)-2,6-difluoro-phenyl]-pyrrolidin-3-yl}-acetic acid] the value was under 0.2 µM; for `O=C(O)CC1CCN(c2c(F)cc(-c3nccc(OCC4CC4)n3)cc2F)C1` (stereo not drawn) [Example 581, {1-[4-(4-cyclopropylmethoxy-pyrimidin-2-yl)-2,6-difluoro-phenyl]-pyrrolidin-3-yl}-acetic acid], under 0.2 µM; for `O=C(O)CC1CCN(c2c(F)cc(-c3csc(OC4CCC4)n3)cc2F)C1` (stereo not drawn) [Example 582, {1-[4-(2-cyclobutoxy-thiazol-4-yl)-2,6-difluoro-phenyl]-pyrrolidin-3-yll}-acetic acid], 0.2 to 2 µM.

Turning to `O=C(O)CC1CCN(c2c(F)cc(-c3csc(OCC4CC4)n3)cc2F)C1` (stereo not drawn) [Example 583, {1-[4-(2-cyclopropylmethoxy-thiazol-4-yl)-2,6-difluoro-phenyl]-pyrrolidin-3-yl}-acetic acid], the concentration for a half-maximal effect (EC50) was in the range of 0.2 to 2 µM.

With `COc1cncc(-c2cc(F)c(N3CCC(CC(=O)O)C3)c(F)c2)n1` (stereo not drawn) [Example 584, {1-[2,6-difluoro-4-(6-methoxy-pyrazin-2-yl)-phenyl]-pyrrolidin-3-yl}-acetic acid], the EC50 fell in the range of 0.2 to 2 µM.
